Literature values, collected in patent US11957723B2, “Methods and uses of microbiome compositions, components, or metabolites for treating neurodegenerative diseases” (MarvelBiome, Inc., priority 2021, dated 2024).

System: ALS patients

For `Nc1nc2ccc(OC(F)(F)F)cc2s1` [Riluzole], the life span expansion (ALS patients in the early stages) is given as “about a three-month life span expansion” and the therapeutic benefit (ALS patients in the late stages) is given as “no therapeutic benefit”.
